Assay results from patent publication US20090099237A1, “Methods of treating inflammatory diseases” (Roche Palo Alto LLC, priority 2007, published 2009).

Experiments:
[1] = biological target: T1, FYN (Homo sapiens, UniProt P06241); assay: KinomeScan kinase profiling; format: binding; settings: 10 μM
T1 construct: purchased Ambit Biosciences

[2] = biological target: LIMK1 (Homo sapiens, UniProt P53667); assay: KinomeScan kinase profiling; format: binding; settings: 10 μM
[3] = biological target: T2, ACK1 (Homo sapiens, UniProt Q07912); assay: KinomeScan kinase profiling; format: binding; settings: 10 μM
T2 construct: purchased Ambit Biosciences
Source text: (§1) The selectivity of a given CK1α, CK1α-CK1δ, CK1α-CK1ε or CK1α-CK1δ-CK1ε inhibitor compound can be determined by testing the compound against a panel of known kinases. An example of such a kinase profiling technology is the “KinomeScan” from Ambit Biosciences in which compounds can be screened for their modulatory activities against more than 200 known kinases.

[4] = biological target: T3, AURKC (Homo sapiens, UniProt Q9UQB9); assay: KinomeScan kinase profiling; format: binding; settings: 10 μM
T3 construct: purchased Ambit Biosciences
T3 sequence (Q9UQB9 whole entry): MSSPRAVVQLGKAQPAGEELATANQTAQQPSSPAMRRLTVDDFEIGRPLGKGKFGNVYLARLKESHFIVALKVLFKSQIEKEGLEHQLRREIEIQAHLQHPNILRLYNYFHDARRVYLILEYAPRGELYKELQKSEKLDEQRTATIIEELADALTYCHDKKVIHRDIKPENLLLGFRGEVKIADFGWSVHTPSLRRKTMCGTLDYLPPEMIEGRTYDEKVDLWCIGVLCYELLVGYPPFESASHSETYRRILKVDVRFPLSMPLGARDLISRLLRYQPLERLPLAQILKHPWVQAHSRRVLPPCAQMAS
Source text: as §1

[5] = biological target: T4, BLK (Homo sapiens, UniProt P51451); assay: KinomeScan kinase profiling; format: binding; settings: 10 μM
T4 construct: purchased Ambit Biosciences
Source text: as §1

[6] = biological target: T5, BMX (Homo sapiens, UniProt P51813); assay: KinomeScan kinase profiling; format: binding; settings: 10 μM
T5 construct: purchased Ambit Biosciences
T5 sequence (P51813 whole entry): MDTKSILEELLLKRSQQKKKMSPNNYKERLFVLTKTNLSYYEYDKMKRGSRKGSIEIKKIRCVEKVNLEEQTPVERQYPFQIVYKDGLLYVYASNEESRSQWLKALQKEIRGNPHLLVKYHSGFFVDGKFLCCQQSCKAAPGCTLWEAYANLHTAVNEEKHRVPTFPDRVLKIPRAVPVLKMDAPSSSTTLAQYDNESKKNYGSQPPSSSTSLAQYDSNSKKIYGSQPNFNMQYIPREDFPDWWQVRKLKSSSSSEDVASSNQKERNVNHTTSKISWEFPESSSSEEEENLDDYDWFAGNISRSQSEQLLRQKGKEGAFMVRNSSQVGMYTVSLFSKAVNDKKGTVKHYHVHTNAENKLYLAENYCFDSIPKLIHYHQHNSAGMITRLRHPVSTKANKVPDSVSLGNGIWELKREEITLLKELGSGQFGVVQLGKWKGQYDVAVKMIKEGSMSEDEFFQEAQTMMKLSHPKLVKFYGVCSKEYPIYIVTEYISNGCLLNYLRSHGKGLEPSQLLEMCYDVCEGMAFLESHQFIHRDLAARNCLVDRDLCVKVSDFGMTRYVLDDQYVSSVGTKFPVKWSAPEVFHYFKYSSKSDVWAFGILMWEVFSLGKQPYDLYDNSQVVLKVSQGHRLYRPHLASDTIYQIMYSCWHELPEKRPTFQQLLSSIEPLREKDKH
Source text: as §1

[7] = biological target: T6, CAMK1 (Homo sapiens, UniProt Q14012); assay: KinomeScan kinase profiling; format: binding; settings: 10 μM
T6 construct: purchased Ambit Biosciences
Source text: as §1

[8] = biological target: T7, CAMK1D (Homo sapiens, UniProt Q8IU85); assay: KinomeScan kinase profiling; format: binding; settings: 10 μM
T7 construct: purchased Ambit Biosciences
T7 sequence (Q8IU85 whole entry): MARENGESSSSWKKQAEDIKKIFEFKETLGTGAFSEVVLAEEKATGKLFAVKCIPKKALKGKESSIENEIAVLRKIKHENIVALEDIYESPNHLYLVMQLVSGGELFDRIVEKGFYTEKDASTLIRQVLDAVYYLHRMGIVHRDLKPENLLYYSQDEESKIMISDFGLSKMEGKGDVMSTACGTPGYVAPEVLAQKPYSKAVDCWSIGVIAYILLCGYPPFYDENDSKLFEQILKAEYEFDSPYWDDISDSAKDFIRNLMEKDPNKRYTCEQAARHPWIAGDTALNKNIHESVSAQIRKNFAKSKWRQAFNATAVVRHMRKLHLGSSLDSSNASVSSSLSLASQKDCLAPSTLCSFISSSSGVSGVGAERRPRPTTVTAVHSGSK
Source text: as §1

[9] = biological target: T8, CAMKK2 (Homo sapiens, UniProt Q96RR4); assay: KinomeScan kinase profiling; format: binding; settings: 10 μM
T8 construct: purchased Ambit Biosciences (San Diego, Calif.)
Source text: as §1

[10] = biological target: T9, CLK3 (Homo sapiens, UniProt P49761); assay: KinomeScan kinase profiling; format: binding; settings: 10 μM
T9 construct: purchased Ambit Biosciences (San Diego, Calif.)
Source text: as §1

[11] = biological target: T10, CSNK1G2 (Homo sapiens, UniProt P78368); assay: KinomeScan kinase profiling; format: binding; settings: 10 μM
T10 construct: purchased Ambit Biosciences (San Diego, Calif.)
Source text: as §1

[12] = biological target: T11, CSNK2A1 (Homo sapiens, UniProt P68400); assay: KinomeScan kinase profiling; format: binding; settings: 10 μM
T11 construct: purchased Ambit Biosciences (San Diego, Calif.)
T11 sequence (P68400 whole entry): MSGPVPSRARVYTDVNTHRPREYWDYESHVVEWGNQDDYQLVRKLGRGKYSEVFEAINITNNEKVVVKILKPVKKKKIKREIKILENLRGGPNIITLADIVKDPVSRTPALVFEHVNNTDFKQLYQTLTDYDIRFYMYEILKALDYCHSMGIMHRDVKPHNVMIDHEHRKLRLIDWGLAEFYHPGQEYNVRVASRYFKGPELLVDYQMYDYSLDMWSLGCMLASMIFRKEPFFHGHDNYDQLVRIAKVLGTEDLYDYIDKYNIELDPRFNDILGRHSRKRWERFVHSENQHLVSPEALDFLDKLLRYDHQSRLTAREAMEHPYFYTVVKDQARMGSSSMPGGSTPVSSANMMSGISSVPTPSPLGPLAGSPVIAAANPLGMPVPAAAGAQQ
Source text: as §1

[13] = biological target: T12, DAPK3 (Homo sapiens, UniProt O43293); assay: KinomeScan kinase profiling; format: binding; settings: 10 μM
T12 construct: purchased Ambit Biosciences (San Diego, Calif.)
Source text: as §1

[14] = biological target: T13, EPHA4 (Homo sapiens, UniProt P54764); assay: KinomeScan kinase profiling; format: binding; settings: 10 μM
T13 construct: purchased Ambit Biosciences (San Diego, Calif.)
Source text: as §1

[15] = biological target: T14, EPHA6 (Homo sapiens, UniProt Q9UF33); assay: KinomeScan kinase profiling; format: binding; settings: 10 μM
T14 construct: purchased Ambit Biosciences (San Diego, Calif.)
T14 sequence (Q9UF33 23-1036): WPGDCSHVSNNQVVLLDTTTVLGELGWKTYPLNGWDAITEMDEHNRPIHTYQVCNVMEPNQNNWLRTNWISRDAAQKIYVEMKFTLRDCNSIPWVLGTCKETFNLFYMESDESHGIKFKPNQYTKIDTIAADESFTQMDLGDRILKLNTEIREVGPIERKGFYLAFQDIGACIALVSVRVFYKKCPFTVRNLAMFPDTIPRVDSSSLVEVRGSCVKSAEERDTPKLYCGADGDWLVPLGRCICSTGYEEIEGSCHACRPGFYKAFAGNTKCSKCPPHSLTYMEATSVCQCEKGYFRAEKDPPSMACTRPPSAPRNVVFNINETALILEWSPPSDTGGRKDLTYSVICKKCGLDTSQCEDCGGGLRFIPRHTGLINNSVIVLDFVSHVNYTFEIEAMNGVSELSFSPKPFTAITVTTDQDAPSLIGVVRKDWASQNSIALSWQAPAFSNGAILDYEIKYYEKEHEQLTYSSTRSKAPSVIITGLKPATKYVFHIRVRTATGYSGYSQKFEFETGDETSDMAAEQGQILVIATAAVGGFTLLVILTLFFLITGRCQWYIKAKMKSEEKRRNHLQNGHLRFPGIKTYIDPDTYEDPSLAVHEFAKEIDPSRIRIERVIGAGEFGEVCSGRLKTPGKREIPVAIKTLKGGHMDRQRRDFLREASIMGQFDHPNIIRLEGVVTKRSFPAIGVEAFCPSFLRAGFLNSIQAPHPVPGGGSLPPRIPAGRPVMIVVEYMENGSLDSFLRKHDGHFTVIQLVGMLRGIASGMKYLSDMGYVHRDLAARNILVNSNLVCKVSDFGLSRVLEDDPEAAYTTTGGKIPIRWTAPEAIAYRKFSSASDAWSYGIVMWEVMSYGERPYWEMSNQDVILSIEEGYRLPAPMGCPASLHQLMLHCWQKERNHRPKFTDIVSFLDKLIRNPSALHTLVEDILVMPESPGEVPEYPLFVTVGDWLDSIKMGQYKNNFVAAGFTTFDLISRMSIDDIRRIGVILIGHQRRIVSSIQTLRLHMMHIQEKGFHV
Source text: as §1

[16] = biological target: T15, FLT4 (Homo sapiens, UniProt P35916); assay: KinomeScan kinase profiling; format: binding; settings: 10 μM
T15 construct: purchased Ambit Biosciences
Source text: as §1

[17] = biological target: T16, HCK (Homo sapiens, UniProt P08631); assay: KinomeScan kinase profiling; format: binding; settings: 10 μM
T16 construct: purchased Ambit Biosciences
Source text: as §1

[18] = biological target: T17, IGF1R (Homo sapiens, UniProt P08069); assay: KinomeScan kinase profiling; format: binding; settings: 10 μM
T17 construct: purchased Ambit Biosciences
Source text: as §1

[19] = biological target: T18, JNK1 (Homo sapiens, UniProt P45983); assay: KinomeScan kinase profiling; format: binding; settings: 10 μM
T18 construct: purchased Ambit Biosciences
T18 sequence (P45983 whole entry): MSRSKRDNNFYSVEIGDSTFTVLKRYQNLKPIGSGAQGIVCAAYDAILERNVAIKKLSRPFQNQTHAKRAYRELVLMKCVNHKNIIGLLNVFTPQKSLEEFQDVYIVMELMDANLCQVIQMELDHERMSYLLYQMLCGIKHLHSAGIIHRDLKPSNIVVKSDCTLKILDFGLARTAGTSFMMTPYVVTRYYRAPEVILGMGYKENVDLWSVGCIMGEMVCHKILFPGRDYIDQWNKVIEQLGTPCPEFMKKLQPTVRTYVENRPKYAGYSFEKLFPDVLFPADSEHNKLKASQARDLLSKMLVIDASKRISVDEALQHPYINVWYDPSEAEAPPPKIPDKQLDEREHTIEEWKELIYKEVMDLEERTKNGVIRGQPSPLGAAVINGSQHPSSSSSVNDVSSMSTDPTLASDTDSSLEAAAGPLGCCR
Source text: as §1

[20] = biological target: MKNK2 (Homo sapiens, UniProt Q9HBH9); assay: KinomeScan kinase profiling; format: binding; settings: 10 μM
Source text: as §1

[21] = biological target: MYLK2 (Homo sapiens, UniProt Q9H1R3); assay: KinomeScan kinase profiling; format: binding; settings: 10 μM
Source text: as §1

[22] = biological target: PDGFRB (Homo sapiens, UniProt P09619); assay: KinomeScan kinase profiling; format: binding; settings: 10 μM
Sequence of PDGFRB (P09619 33-1106): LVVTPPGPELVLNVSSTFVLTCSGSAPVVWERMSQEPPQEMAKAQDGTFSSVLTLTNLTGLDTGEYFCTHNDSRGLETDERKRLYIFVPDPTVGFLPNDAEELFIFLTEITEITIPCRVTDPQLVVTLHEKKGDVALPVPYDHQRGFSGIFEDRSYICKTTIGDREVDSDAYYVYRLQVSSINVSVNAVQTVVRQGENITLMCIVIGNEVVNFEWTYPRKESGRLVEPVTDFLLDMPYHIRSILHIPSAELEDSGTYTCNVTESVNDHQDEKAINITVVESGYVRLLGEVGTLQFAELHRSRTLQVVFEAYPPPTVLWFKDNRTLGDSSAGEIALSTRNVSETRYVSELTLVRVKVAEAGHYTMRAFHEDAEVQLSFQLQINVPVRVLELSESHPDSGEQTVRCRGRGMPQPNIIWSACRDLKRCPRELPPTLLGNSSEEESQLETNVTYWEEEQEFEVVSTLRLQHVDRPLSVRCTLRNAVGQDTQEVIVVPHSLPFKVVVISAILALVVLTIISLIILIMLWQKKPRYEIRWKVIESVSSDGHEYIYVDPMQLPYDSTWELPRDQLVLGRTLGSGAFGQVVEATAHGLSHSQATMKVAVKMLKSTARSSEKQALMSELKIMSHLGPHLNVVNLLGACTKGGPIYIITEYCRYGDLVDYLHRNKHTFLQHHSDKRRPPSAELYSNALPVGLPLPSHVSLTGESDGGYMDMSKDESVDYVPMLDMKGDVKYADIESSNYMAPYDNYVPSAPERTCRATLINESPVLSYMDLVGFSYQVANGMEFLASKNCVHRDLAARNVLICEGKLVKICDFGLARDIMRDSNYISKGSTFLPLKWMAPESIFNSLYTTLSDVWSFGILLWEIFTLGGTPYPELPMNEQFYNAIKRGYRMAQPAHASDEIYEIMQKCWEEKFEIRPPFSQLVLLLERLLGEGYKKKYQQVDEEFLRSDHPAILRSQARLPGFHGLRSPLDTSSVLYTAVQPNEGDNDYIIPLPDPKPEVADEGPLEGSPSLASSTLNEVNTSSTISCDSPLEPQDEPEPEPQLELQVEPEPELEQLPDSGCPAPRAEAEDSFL
Source text: as §1

[23] = biological target: PHKG2 (Homo sapiens, UniProt P15735); assay: KinomeScan kinase profiling; format: binding; settings: 10 μM
Source text: as §1

[24] = biological target: T19, PIM2 (Homo sapiens, UniProt Q9P1W9); assay: KinomeScan kinase profiling; format: binding; settings: 10 μM
T19 construct: purchased Ambit Biosciences
Source text: as §1

[25] = biological target: T20, PTK2 (Homo sapiens, UniProt Q05397); assay: KinomeScan kinase profiling; format: binding; settings: 10 μM
T20 construct: purchased Ambit Biosciences
Source text: as §1

[26] = biological target: T21, PTK2B (Homo sapiens, UniProt Q14289); assay: KinomeScan kinase profiling; format: binding; settings: 10 μM
T21 construct: purchased Ambit Biosciences
Source text: as §1

[27] = biological target: T22, SRC (Homo sapiens, UniProt P12931); assay: KinomeScan kinase profiling; format: binding; settings: 10 μM
T22 construct: purchased Ambit Biosciences
Source text: as §1

[28] = biological target: T23, STK17B (Homo sapiens, UniProt O94768); assay: KinomeScan kinase profiling; format: binding; settings: 10 μM
T23 construct: purchased Ambit Biosciences
Source text: as §1

[29] = biological target: T24, TIE2 (Homo sapiens, UniProt Q02763); assay: KinomeScan kinase profiling; format: binding; settings: 10 μM
T24 construct: purchased Ambit Biosciences
Source text: as §1

[30] = biological target: T25, TTK (Homo sapiens, UniProt P33981); assay: KinomeScan kinase profiling; format: binding; settings: 10 μM
T25 construct: purchased Ambit Biosciences
Source text: as §1

[31] = biological target: T26, YES (Homo sapiens, UniProt P07947); assay: KinomeScan kinase profiling; format: binding; settings: 10 μM
T26 construct: purchased Ambit Biosciences
T26 sequence (P07947 whole entry): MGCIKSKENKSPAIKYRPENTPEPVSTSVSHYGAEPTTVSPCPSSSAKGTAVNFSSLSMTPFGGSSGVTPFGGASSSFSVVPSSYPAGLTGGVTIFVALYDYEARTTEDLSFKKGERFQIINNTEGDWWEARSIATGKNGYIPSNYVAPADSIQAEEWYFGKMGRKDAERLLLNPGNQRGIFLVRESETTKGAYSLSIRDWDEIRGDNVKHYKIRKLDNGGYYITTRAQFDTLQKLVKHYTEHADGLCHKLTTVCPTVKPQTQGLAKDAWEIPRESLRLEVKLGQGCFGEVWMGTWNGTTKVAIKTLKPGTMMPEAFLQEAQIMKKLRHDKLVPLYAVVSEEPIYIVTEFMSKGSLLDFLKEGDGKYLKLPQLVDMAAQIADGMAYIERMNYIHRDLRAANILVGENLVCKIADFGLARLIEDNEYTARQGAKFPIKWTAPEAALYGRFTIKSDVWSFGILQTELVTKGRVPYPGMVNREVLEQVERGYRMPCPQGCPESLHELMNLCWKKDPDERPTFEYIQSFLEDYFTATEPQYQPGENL
Source text: as §1

[32] = biological target: p38-gamma (Homo sapiens, UniProt P53778); assay: KinomeScan kinase profiling; format: binding; settings: 10 μM
Source text: as §1

[33] = tested on: IL-6 production in human umbilical vein endothelial cells (HUVECs); assay: Cytokine-induced IL-6 production assay in HUVEC; format: cell-based; settings: IL-1β or LPS stimulation for 6 hours, ELISA, FIG. 4
Procedure: Clonetics® primary human umbilical vein endothelial cells (HUVEC; Lonza Walkersville, Inc., Walkersville, Md.) were cultured according to the manufacturer's instructions in EGM™-2 medium (Lonza) supplemented with EGM-2 SingleQuots (containing fetal bovine serum, hydrocortisone, hFGF, VEGF, hFGF-B, R3-IGF-1, ascorbic acid, hEGF, heparin and gentamicin; Lonza). Where indicated, cells were stimulated with 1 ng/mL IL-1β (R&D Systems, Inc., Minneapolis, Minn.) or 50 ng/mL LPS (Sigma-Aldrich, St. Louis, Mo.) for 6 or 24 hours before cell or supernatant harvest.
Activity of IC261 and Compound A against cytokine-induced inflammation in vitro was determined in human umbilical vein endothelial cells (HUVECs) upon stimulation with either IL-1β or LPS for 6 hours. IL-6 was assessed in supernatants by ELISA according to the manufacturer's instructions (BD Biosciences), and % inhibition calculated based on maximal IL-6 production in each assay.

SMILES | % Binding [1] | % Binding [2] | % Binding [3] | % Binding [4] | % Binding [5] | % Binding [6] | % Binding [7] | % Binding [8] | % Binding [9] | % Binding [10] | % Binding [11] | % Binding [12] | % Binding [13] | % Binding [14] | % Binding [15] | % Binding [16] | % Binding [17] | % Binding [18] | % Binding [19] | % Binding [20] | other results
NC(=O)c1cc(-c2ccncc2)c[nH]1 [Compound A, 4-Pyridin-4-yl-1H-pyrrole-2-carboxylic acid amide] | <50% | <50% | <50% | <50% | <50% | <50% | <50% | <50% | <50% | <50% | 76% | <50% | 74% | <50% | <50% | <50% | <50% | <50% | <50% | <50% | % Binding [21]: <50%; % Binding [22]: <50%; % Binding [23]: <50%; % Binding [24]: <50%; % Binding [25]: <50%; % Binding [26]: <50%; % Binding [27]: <50%; % Binding [28]: 96%; % Binding [29]: <50%; % Binding [30]: <50%; % Binding [31]: <50%; % Binding [32]: <50%; inhibition of IL-1β or LPS-induced IL-6 production [33]: inhibition
COc1cc(OC)c(C=C2C(O)=Nc3ccccc32)c(OC)c1 [IC261, 3-[(2,4,6-trimethoxyphenyl)methylidenyl]-indolin-2-one] | <50% | <50% | <50% | <50% | <50% | <50% | <50% | <50% | <50% | <50% | <50% | <50% | <50% | <50% | <50% | <50% | <50% | <50% | <50% | <50% | % Binding [21]: <50%; % Binding [22]: <50%; % Binding [23]: <50%; % Binding [24]: <50%; % Binding [25]: <50%; % Binding [26]: <50%; % Binding [27]: <50%; % Binding [28]: <50%; % Binding [29]: <50%; % Binding [30]: <50%; % Binding [31]: <50%; % Binding [32]: <50%; inhibition of IL-1β or LPS-induced IL-6 production [33]: inhibition
